Holding throughout (assay type): in vivo
The test system of test [1] is D-gal exposed mice. In words: Spatial memory test with the Morris Water Maze (MWM). The conditions noted are these: D-gal exposure 125 mg/kg/d, 8 weeks; 12 animals. The text has this: The Morris Walter Maze (MWM) was applied to measure cognitive deficiencies in D-gal exposed mice. […] In particular, FIG. 1A illustrates the latency time for finding a platform of control subjects, D-gal subjects and subjects administered Formulas A-C over a period of training days. The subjects, in this case, were mice. Values are illustrated as mean ±SEM of 12 animals. […] In addition, FIG. 1B illustrates the latency distance to the platform of control subjects, D-gal subjects and subjects administered Formulas A-C over the same period of training days as illustrated in FIG. 1A.

Test [2] concerns D-gal exposed mice. In words: Coordination test with the Rota-Rod. Particulars: 12 animals. Here is the method:
FIG. 2 illustrates a coordination test with the Rota-Rod. In addition, latency to fall was tested. Values are mean ±SEM of 12 animals.
In general terms: In the rotarod test animals must keep their balance on a rotating rod.

For test [3], the system named is D-gal exposed mice. In words: Grip strength test (forelimb). The conditions noted are these: 12 mice. Here is the method: It should further be understood that a decrease in strength is a reliable indicator of the aging process. In this aspect, the rodent grip strength test is a putative measure of muscular strength and has been previously used to screen for neuromuscular function. FIG. 3 illustrates the results of a grip strength test. In particular, grip strength of forelimb was tested. Values are means ±SEM of 12 mice. **P<0.01 versus Normal group, ^##P<0.01 versus D-gal group, ^###P<0.001 versus D-gal group.

For test [4], the system named is mitochondria of gastrocnemius muscle. The test is described as follows: Transmission electron microscopy of gastrocnemius muscle mitochondria. The conditions noted are these: D-gal exposed mice. An excerpt:
To understand the grip strength loss caused by D-gal exposure, the morphology of mice gastrocnemius muscles were further evaluated with transmission electron microscopy. FIGS. 4A-4E illustrate the transmission electron microscopy results of the gastrocnemius muscle. In particular, FIG. 4A illustrates the transmission electron microscopy for the control group of subjects (i.e. mice), FIG. 4B illustrates the transmission electron microscopy for the D-gal group, FIG. 4C illustrates the transmission electron microscopy for the Formula A group, FIG. 4D illustrates the transmission electron microscopy for the Formula B group, FIG. 4E illustrates the transmission electron microscopy for the Formula C group. A magnified view of the upper panels in FIGS. 4A-4E are shown in the lower panels.

Test [5] has as its system complex I in gastrocnemius mitochondria. In words: Complex I activity in gastrocnemius mitochondria. Particulars: D-gal exposed mice; n=12. Here is the method:
In view of the abnormal mitochondrial morphology in the skeletal muscle of the D-gal treated mice, the activities of some key enzymes in the electron transport chain (ETC) and the tricarboxylic acid (TCA) cycle were further examined.
(§1) FIG. 7 illustrates the effects of Formulas A-C on the activity of complex I in gastrocnemius and heart mitochondria. Activities of complex I of gastrocnemius (n=12) and heart (n=11) in all groups were assayed. All values are expressed as means ±SEM. **P<0.01 versus Normal group, ^#P<0.05 versus D-gal group, ^##P<0.01 versus D-gal group.

Test [6] deals with complex I in heart mitochondria. In words: Complex I activity in heart mitochondria. The conditions noted are these: D-gal exposed mice; n=11. Here is the method: The activity of complex I was also assayed in several other tissues, such as liver, heart, and brain. FIG. 6 illustrates activities of complex I in mitochondria from multiple tissues. As is illustrated by the results shown in FIG. 6, D-gal administration impairs the activity of complex I in gastrocnemius. Values are means ±SEM of 12 mice in gastroanemius, 11 mice in heart and 12 mice in brain and liver. **P<0.01 versus Normal group.
as §1

This note sets out measurements from patent US20160000852A1, “NUTRIENT COMBINATIONS FOR AFFECTING AN AGING PROCESS” (BioMarker Pharmaceuticals, Inc., priority 2013, published 2016).

As to `O=C[C@H](O)[C@@H](O)[C@@H](O)[C@H](O)CO` [D-gal, D-galactose], in the test on D-gal exposed mice [1], the “spatial memory (latency time and latency distance to platform) in MWM” value is listed as “did not affect the escape latency or swimming distance”. For the same compound, the “motor coordination (latency to fall) in Rota-Rod test” value in the test with D-gal exposed mice [2] is given as “No difference in latency time”. For the same compound, the “grip strength of forelimb” value in the test on D-gal exposed mice [3] is reported as “significantly weaker grip strength”. Moreover, the “mitochondrial morphology in gastrocnemius muscle” value in test [4] was “swollen and elongated mitochondria with obvious cristae disruption”. In addition, the “complex I activity in gastrocnemius (skeletal muscle) mitochondria” value in test [5] is reported as “only complex I activity was impaired”. In test [6], the “complex I activity in heart mitochondria” value is recorded as “marginal decrease in heart muscle”.
